From patent US20110124607A1, “COMPOSITION FOR REGULATION CELLULAR SENESCENCE COMPRISING LYSOPHOSPHATIDIC ACID AND INHIBITOR OF ADENYLYL CYCLASE AS ACTIVE INGREDIENTS” (priority 2008, published 2011) come the findings set out here.

Common to all, as to assay type: cell-based, human
One assay has as its system p-Ser485/491-AMPKα. Kind of assay: Immuno-blotting of p-Ser485/491-AMPKα. The note with it: for p-Ser485/491-AMPKα expression after suppressing PKA: senescent cells pre-treated with 10 mM PKA inhibitor Rp-cAMP for one hour; for Ser485/491-AMPKα phosphorylation: 30 μM LPA, 300 μM ACI, up to day 4. Here is the method: (A) and (B) are photographs illustrating the results of immuno-blotting. Precisely, sub-cultured young cells (PD 18: A) and senescent cells (PD 64: B) were treated with 30 μM of LPA […] and ACI singly or together, followed by further culture for 1, 2, and 4 days. Proteins were extracted from the cultured cells and the levels of AMPKα, p-Thr172-AMPKα, p-Ser485/491-AMPKα, p53, p-Ser15-p53, p21waf1/cip1 and β-actin were quantified by immuno-blotting.
(A) and (B) are photographs illustrating the results of immuno-blotting. Precisely, senescent cells (PD 64) were pre-treated with 10 mM of PKA inhibitor Rp-cAMP for one hour, followed by treatment with LPA(A) or ACI(B). After culturing the cells for 1, 2, and 4 days, proteins were extracted from the cultured cells and the levels of AMPKα, p-Thr172-AMPKα, p-Ser485/491-AMPKα, p53, p-Ser15-p53, p21waf1/cip1 and β-actin were quantified by immuno-blotting using 45 μg of the protein.
(§1) To analyse protein expression, human fibroblasts were lysed in cold lysis buffer (25 mM Hepes, pH 8.0, 150 mM NaCl, 1 mM EDTA, 1 mM Na3VO4, 1 mM NaF, 1% Triton X-100 and protease inhibitors), followed by centrifugation at 4° C. at 9,000 rpm for 10 minutes to obtain supernatant. Protein in the extract was quantified […]. SDS-PAGE electrophoresis was performed with equal amount of the protein (45 μg) to separate. The separated protein was transferred onto NC membrane from the electrophoresis gel. Non-specific protein binding was blocked by blocking the blot (transferred NC membrane) using TTBS […] containing 5% skim milk for one hour. Then, antigen-antibody reaction was induced with diluted primary antibody at 4° C. for overnight. The blot was washed with TTBS, followed by reaction with horseradish peroxidase conjugated anti-IgGs diluted in TTBS containing 5% skim milk (1:5000) at room temperature for one hour. The blot was washed again with TTBS to eliminate non-specific binding of antigen-antibody. Photographs were developed/printed on X-ray film (Kodak) using ECL kit (Pierce) containing peroxidase substrate to identify each protein.

A further assay relates to p-Ser15-p53. The assay can be described thus: Immuno-blotting of p-Ser15-p53. As to conditions: for p-Ser15-p53 expression after suppressing PKA: senescent cells pre-treated with 10 mM PKA inhibitor Rp-cAMP for one hour; for p-Ser15-p53 expression: senescent cells, 30 μM LPA, 300 μM ACI, 10 mM AMPKI, 10 mM AICAR. Here is the method:
(A) and (B): Young and senescent cells were serum-starved for 2 days, followed by treatment with 10 mM of AMPK inhibitor […]) or 10 mM of AMPK activator AICAR(B) for 4 days. Proteins were extracted from the treated cells and the levels of AMPKα and p-Thr172-AMPKα, total p53, p-Ser15-p53 and […] measured by immuno-blotting. (C) and (D): Young cells (C) and senescent cells (D) were treated with 10 mM AMPKI or 10 mM AICAR and cultured for 4 days, followed by measurement of cell proliferation by cell counting. At this time, the experiment was repeated three times (p<0.001). (A) and (B) are photographs illustrating the results of immuno-blotting. Precisely, sub-cultured young cells (PD 18: A) and senescent cells (PD 64: B) were treated with 30 μM of LPA […] and ACI singly or together, followed by further culture for 1, 2, and 4 days. Proteins were extracted from the cultured cells and the levels of AMPKα, […] β-actin were quantified by immuno-blotting. (A) and (B) are photographs illustrating the results of immuno-blotting. Precisely, senescent cells (PD 64) were pre-treated with 10 mM of PKA inhibitor Rp-cAMP for one hour, followed by treatment with LPA(A) or ACI(B). After culturing the cells for 1, 2, and 4 days, proteins were extracted from the cultured cells and the levels of AMPKα, […] β-actin were quantified by immuno-blotting using 45 μg of the protein. To analyse protein expression, human fibroblasts were lysed in cold lysis buffer (25 mM Hepes, pH 8.0, 150 mM NaCl, 1 mM EDTA, 1 mM Na3VO4, 1 mM NaF, 1% Triton X-100 and protease inhibitors), followed by centrifugation at 4° C. at 9,000 rpm for 10 minutes to obtain supernatant. Protein in the extract was quantified […]. SDS-PAGE electrophoresis was performed with equal amount of the protein (45 μg) to separate. The separated protein was transferred onto NC membrane from the electrophoresis gel. Non-specific protein binding was blocked by blocking the blot (transferred NC membrane) using TTBS […] containing 5% skim milk for one hour. Then, antigen-antibody reaction was induced with diluted primary antibody at 4° C. for overnight. The blot was washed with TTBS, followed by reaction with horseradish peroxidase conjugated anti-IgGs diluted in TTBS containing 5% skim milk (1:5000) at room temperature for one hour. The blot was washed again with TTBS to eliminate non-specific binding of antigen-antibody. Photographs were developed/printed on X-ray film (Kodak) using ECL kit (Pierce) containing peroxidase substrate to identify each protein.

For another assay, the system named is LKB1. Kind of assay: Immuno-blotting of LKB1. As to conditions: 1, 2, 4 days. How it is done: FIG. 8 is a set of photographs illustrating the effects of LPA and ACI on LKB1 phosphorylation in senescent cells. Precisely, sub-cultured young cells (PD 18) and senescent cells (PD64) were treated with 30 μM of LPA or 300 μM of LPA and ACI singly or together. After culturing the cells for 1, 2, and 4 days, proteins were extracted from the cultured cells and the levels of LKB1, p-Ser431-LKB1 and β-actin were quantified by immuno-blotting using 45 μg of the protein.
as §1, with “The blot was washed with TTBS, followed by reaction with horseradish peroxidase conjugated anti-IgGs diluted in TTBS containing 5% skim milk (1:5000) at room temperature for one hour. The blot was washed again with TTBS to eliminate non-specific binding of antigen-antibody. Photographs were developed/printed on X-ray film (Kodak) using ECL kit (Pierce) containing peroxidase substrate to identify each protein.” left out

`Nc1ncnc2c1ncn2C1CCCO1` (stereo not drawn) [ACI, 9-(tetrahydro-2′-furyl)adenine]: in the assay with p-Ser485/491-AMPKα, the “p-Ser485/491-AMPKα expression after suppressing PKA” value is “not changed”. The Ser485/491-AMPKα phosphorylation result in the assay on p-Ser485/491-AMPKα (senescent cells) was “did not affect”; in the assay on p-Ser485/491-AMPKα (young cells), “reduced”. For the same compound, the “p-Ser15-p53 expression after suppressing PKA” value in the assay on p-Ser15-p53 was “not changed”. In addition, the p-Ser15-p53 expression entry in the assay on p-Ser15-p53 is “reduced”. Moreover, the LKB1 expression entry in the assay on LKB1 (senescent cells, 300 μM ACI) is “reduced”.

As to lysophosphatidic acid [LPA], in the assay with p-Ser485/491-AMPKα, the “p-Ser485/491-AMPKα expression after suppressing PKA” value is “not changed at all”. For the same compound, the Ser485/491-AMPKα phosphorylation entry with p-Ser485/491-AMPKα (senescent cells) is given as “gradually increased”. In addition, the Ser485/491-AMPKα phosphorylation result in the assay with p-Ser485/491-AMPKα (young cells) is “reduced”. For the same compound, in the assay with p-Ser15-p53, the “p-Ser15-p53 expression after suppressing PKA” value is on record as “not changed at all” and the p-Ser15-p53 expression entry is “reduced”. Also, the LKB1 expression result in the assay on LKB1 (young cells, 30 μM LPA) is given as “not changed”.
